In PubChem BioAssay AID588498 (Molecular Libraries Program, Specialized Chemistry Center, …, 2011):
Activity calls are given as the source filed them.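 How the source made its calls: active means compounds that block purified firefly luciferase enzyme with half-maximal potency below 20 µM; inactive means the rest.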

Target: Luciferin 4-monooxygenase (Photinus pyralis) (UniProt P08659)
Experiment: purified FLuc enzyme activity modulation – biochemical, qHTS, Km substrates, luminescence, counter-screen for EBNA-1 inhibitor project, profiling panel (AID 588498)

Chain of Luciferin 4-monooxygenase (Photinus pyralis) (P08659 whole entry, looked up): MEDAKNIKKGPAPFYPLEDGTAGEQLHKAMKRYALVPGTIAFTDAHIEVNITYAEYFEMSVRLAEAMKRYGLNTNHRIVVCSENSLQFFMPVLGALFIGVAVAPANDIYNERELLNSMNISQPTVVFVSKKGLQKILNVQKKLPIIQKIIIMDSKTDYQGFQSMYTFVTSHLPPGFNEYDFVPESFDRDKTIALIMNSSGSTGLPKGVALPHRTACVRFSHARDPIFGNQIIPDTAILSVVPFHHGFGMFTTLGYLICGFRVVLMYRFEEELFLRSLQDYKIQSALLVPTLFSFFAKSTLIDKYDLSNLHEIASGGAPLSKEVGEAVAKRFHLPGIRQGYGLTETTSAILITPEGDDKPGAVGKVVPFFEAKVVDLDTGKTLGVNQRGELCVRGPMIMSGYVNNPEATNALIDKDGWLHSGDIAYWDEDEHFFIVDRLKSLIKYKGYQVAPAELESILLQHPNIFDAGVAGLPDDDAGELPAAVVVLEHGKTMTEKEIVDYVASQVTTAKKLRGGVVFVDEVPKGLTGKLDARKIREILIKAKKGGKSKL

| Structure (SMILES) | AC50 |
| --- | --- |
| Nc1c(C(=O)Nc2ccc3c(c2)OCCO3)nnn1Cc1cccc(Cl)c1 | 3.26 µM |
| Cc1ccc(-n2nnnc2SCC(=O)c2cc(C)n(CC3CCCO3)c2C)cc1 (centres undefined) | 6.51 µM |
| Cc1ccccc1C(=O)Nc1nc2ccc(S(C)(=O)=O)cc2s1 | 6.51 µM |
| Cc1cccc(C(=O)Nc2nc3ccc(S(C)(=O)=O)cc3s2)c1 | 2.91 µM |
| Nc1c(C(=O)Nc2ccc3c(c2)OCCO3)nnn1Cc1cccc(C(F)(F)F)c1 | 20.6 µM |
| Cc1ccccc1NC(=O)c1nnn(Cc2cccc(Cl)c2)c1N | > 30 µM (inactive) |
| CS(=O)(=O)c1ccc2nc(NC(=O)c3ccccc3Cl)sc2c1 | 3.26 µM |
| CS(=O)(=O)c1ccc2nc(NC(=O)c3cccc(F)c3)sc2c1 | 0.366 µM |
| Cc1cccc(-n2nnnc2SCC(=O)c2cc(C)n(CC3CCCO3)c2C)c1 (centres undefined) | 18.3 µM |
| COc1ccc2nc(NC(=O)c3ccc(C)c(C)c3)sc2c1 | 0.651 µM |
| Cc1ccc(C(=O)Nc2nc3ccc(S(C)(=O)=O)cc3s2)cc1C | 5.8 µM |
| Nc1c(C(=O)Nc2cccc(C(F)(F)F)c2)nnn1Cc1cccc(Cl)c1 | > 30 µM (inactive) |
| COc1cccc(Cn2nnc(C(=O)Nc3ccc4c(c3)OCCO4)c2N)c1 | 4.11 µM |
| COc1ccc(C(=O)Nc2nc3ccc(S(C)(=O)=O)cc3s2)cc1 | 2.59 µM |
| COCCn1c(C)cc(C(=O)CSc2nnnn2-c2ccccc2)c1C | 1.63 µM |
| Cc1ccc(C(=O)Nc2nc3ccc(S(C)(=O)=O)cc3s2)cc1 | 1.83 µM |
| Cc1cc(C(=O)CSc2nnnn2-c2ccccc2)c(C)n1CC1CCCO1 (centres undefined) | 2.06 µM |
| COc1ccc(Cn2nnc(C(=O)Nc3ccc4c(c3)OCCO4)c2N)cc1 | 2.91 µM |
| Cc1ccccc1-n1nnnc1SCC(=O)c1cc(C)n(CC2CCCO2)c1C (centres undefined) | 2.91 µM |
